Experiment [1] addresses T1, Mu-type opioid receptor (Bos taurus, UniProt P79350). Nature of the experiment: Binding affinity towards opioid receptor mu 1.
The target of experiment [2] is T1, Mu-type opioid receptor. Nature of the experiment: Binding affinity towards opioid receptor mu 2.
Experiment [3] concerns the target Kappa-type opioid receptor (Cavia porcellus, UniProt P41144). Nature of the experiment: Binding affinity towards opioid receptor kappa 1.
Another experiment deals with Mus musculus. The experiment can be described thus: Antinociceptive activity displayed after pretreatment with selective opioid antagonist beta-FNA([…], sc). Type of experiment: functional.

T1 sequence (P79350 whole entry): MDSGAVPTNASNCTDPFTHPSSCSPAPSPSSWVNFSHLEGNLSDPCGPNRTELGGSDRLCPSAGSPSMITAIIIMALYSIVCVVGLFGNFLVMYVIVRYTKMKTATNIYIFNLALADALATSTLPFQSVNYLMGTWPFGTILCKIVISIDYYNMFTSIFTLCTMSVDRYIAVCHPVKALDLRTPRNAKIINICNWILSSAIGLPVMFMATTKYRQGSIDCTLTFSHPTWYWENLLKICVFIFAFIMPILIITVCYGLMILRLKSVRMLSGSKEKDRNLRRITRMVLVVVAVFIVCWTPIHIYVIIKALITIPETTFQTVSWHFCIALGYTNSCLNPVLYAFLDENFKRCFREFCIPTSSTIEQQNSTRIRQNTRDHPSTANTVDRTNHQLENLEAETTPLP
Sequence of Kappa-type opioid receptor (P41144 whole entry): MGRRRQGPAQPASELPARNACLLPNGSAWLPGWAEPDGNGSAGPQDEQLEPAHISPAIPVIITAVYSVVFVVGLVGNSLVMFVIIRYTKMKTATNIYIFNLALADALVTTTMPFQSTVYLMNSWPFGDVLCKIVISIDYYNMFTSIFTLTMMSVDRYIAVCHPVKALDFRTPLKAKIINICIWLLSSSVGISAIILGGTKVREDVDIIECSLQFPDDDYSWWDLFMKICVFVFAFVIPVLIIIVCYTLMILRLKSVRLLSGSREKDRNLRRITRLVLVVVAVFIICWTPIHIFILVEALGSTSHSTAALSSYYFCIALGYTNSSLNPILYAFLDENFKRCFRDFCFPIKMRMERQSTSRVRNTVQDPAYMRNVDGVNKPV

For orientation: Ki means the dissociation constant of the complex between target and ligand, obtained from inhibition or displacement. A high value points to lower affinity. `CC1(C)SSC(C)(C)[C@@H](NC(=O)[C@@H](N)Cc2ccc(O)cc2)C(=O)NCC(=O)N[C@@H](Cc2ccccc2)C(=O)N[C@H]1C(=O)O`: the Ki at Mu-type opioid receptor [1] turned out to be 82 nM; at Mu-type opioid receptor [2], 460 nM.
`C[C@@H]1C2CCCC1(c1cccc(O)c1)CCN2C` (mixture of isomers): the Ki is 46 nM at Mu-type opioid receptor [1], 70 nM in experiment [3] and 190 nM on Mu-type opioid receptor [2].
In the case of `CN1CCC2(c3cccc(O)c3)CCCC1[C@H]2O` (mixture of isomers), the Ki on Mu-type opioid receptor [1] amounted to 8.8 nM; in experiment [3] it was 110 nM; at Mu-type opioid receptor [2] it was 28 nM.
Taken in the same sequence, the figures for `CN1CCC2(c3cccc(O)c3)CCCC1[C@@H]2O` (mixture of isomers) were 75 nM, over 500 nM and over 275 nM.
For the compound `CN1CCC2(c3cccc(O)c3)CCCC1C2` (single isomer, unassigned; (+)), in the experiment with Mus musculus, the Animals is given as 0%. Further, the Ki is 3.4 nM at Mu-type opioid receptor [1], 98 nM in experiment [3] and 19 nM on Mu-type opioid receptor [2].
Turning to `C[C@@H]1C2CCCC1(c1cccc(O)c1)CCN2C` (single isomer, unassigned; (+)), the inhibitory constant (Ki) is 140 nM on Mu-type opioid receptor [1], 89 nM in experiment [3] and over 600 nM on Mu-type opioid receptor [2].
Consider `CN1CCC2(c3cccc(O)c3)CCCC1C2` (single isomer, unassigned; (-)), for which the results for the Ki (at Mu-type opioid receptor [1]; in experiment [3]; at Mu-type opioid receptor [2]) were 13 nM, 200 nM and 63 nM, respectively.
As for `C[C@@H]1C2CCCC1(c1cccc(O)c1)CCN2C` (single isomer, unassigned; (-)), the values for the Ki (at Mu-type opioid receptor [1]; in experiment [3]; at Mu-type opioid receptor [2]) were 18 nM, 49 nM and 50 nM, respectively.

These data come from ChEMBL document CHEMBL1125447, “Phenylmorphans and analogues: opioid receptor subtype selectivity and effect of conformation on activity” (J Med Chem, 1992).
